Measurements from patent publication US20070270429A1, “Function Inhibitor of Effector Cell” (priority 2003, published 2007).
Like-named read-outs stand apart in the source and are kept apart here.

Legend:
[1] = test system: human CD8-positive memory T cell; test: Cell growth inhibition test of human CD8-positive memory T cell (anti-CD3 antibody stimulation, BrdU uptake); type: cell-based; settings: 48 hours
Method: A heparinized blood sample was collected from a human, healthy volunteer, and peripheral blood mononuclear cell (PBMC) was isolated by a density gradient centrifugation. Specifically, a blood sample (33 ml) 2-fold diluted with physiological saline was overlaid on a medium for hemocyte separation use (10 ml) having a specific gravity of 1.077±0.001 g/ml contained in a centrifugation tube (LymphoPrep tube (Nycomed Pharma)) and centrifuged (3000×g, 10 minutes) at room temperature. The layer containing PBMC was recovered and washed twice with PBS to isolate PBMC.
CD8-positive T cell was isolated from PBMC by a negative selection method using Human T Cell CD8 Subset Column Kit (R & D Systems, Inc). Specifically, the cells to be removed such as B cell, CD4-positive T cell, and monocyte were labeled with antibodies by adding an antibody cocktail (1 ml) (attached to the kit) to PBMC (up to 2×10^8 cells) and incubating at room temperature for 15 minutes. The cells were washed twice with a column buffer (10 ml) (attached to the kit) and suspended in said column buffer (2 ml). The cell suspension was added to Human T Cell Subset Enrichment Column (attached to the kit) which had been equilibrated in advance using the column buffer (10 ml). By eluting with the column buffer (10 ml) after incubation at room temperature for 10 minutes, the CD8-positive T cell was obtained.
CD8-positive naive T cell and CD8-positive memory T cell were obtained by fractionating the CD8-positive T cell obtained by the above-described method using VarioMACS (Miltenyl Biotec). Specifically, a marker of naive T cell, CD45RA antigen, was labeled with antibody magnetic beads by adding 20 μl of CD45RA MicroBeads (Miltenyl Biotec) to 1×10^7 cells of the CD8-positive T cell, mixing them and incubating at 6 to 12° C. for 15 minutes. The cells were washed once with MACS buffer (PBS containing 2 mM EDTA and 0.5% bovine serum albumin (BSA)) (20 ml) (attached to the kit) and re-suspended in MACS buffer (0.5 ml). The cell suspension was added to an MS column (Miltenyl Biotec) which had been set to VarioMACS and equilibrated with MACS buffer (0.5 ml) in advance, and further washed with MACS buffer (0.5 ml×3 times). This washing solutions were recovered and used in the following test as the CD45RA-negative cell, namely CD8-positive memory T cell. Also, since the CD45RA-positive cell can be recovered by taking off the MS column from VarioMACS and eluting it with MACS buffer (1.5 ml), this was used in the following test as the CD8-positive naive T cell.
The cells fractionated by the method described in the above-described (2-1) were inoculated into a 96 well plate coated with an anti-human CD3 antibody, at a cell density of 2×10^5 cells/200 μl/well. The anti-human CD3 antibody-coated 96 well plate used herein was prepared by coating it with an anti-human CD3 antibody OKT-3 (0.1 μg/ml) overnight at 4° C. The cells were cultured for 48 hours in a CO2 incubator (5% CO2, humidity 95%) kept at 37° C. The cell growth was measured using Cell Proliferation ELISA, BrdU (Colorimetric) (Roche), using uptake of 5-bromo-2-deoxyuridine (BrdU) as the index. The operation method is shown below.
After treating the cells with BrdU for a predetermined period of time, the plate was centrifuged (300×g, 10 minutes), and then turned upside down and lightly shaken to remove the labeled medium. The plate was dried (for about 15 minutes) using a hair dryer. A cell fixing and DNA denaturing solution (200 μl, attached to the kit) was added to each well and left alone for 30 minutes. After removing the cell fixing and DNA denaturing solution and further removing water, a peroxidase-labeled anti-BrdU antibody (anti-BrdU-POD reaction solution) (100 μl) (attached to the kit) was added thereto and left alone at room temperature for 90 minutes. […]

human CCR5 = biological target: T1, human CCR5 (Homo sapiens, UniProt P51681); test: Migration test of human CCR5 expression cell (hCCR5-Ba/F3 cell); type: cell-based; settings: hCCR5-Ba/F3 cells, 3 hours
T1 construct: expressed in transfected cells
Method: The Ba/F3 cell was statically cultured in a CO2 incubator (temperature: 37° C., CO2 concentration: 5%, humidity: 100%) using RPMI-1640 medium (Gibco BRL) containing an antibiotic preparation (Antibiotic-Antimycotic) (final concentration: penicillin G sodium (100 U/ml), streptomycin sulfate (100 μg/ml), amphotericin B (0.25 μg/ml)) (Gibco BRL), fetal bovine serum (FBS) (10%) and interleukin 3 (IL-3) (5 ng/ml) (Pepro Tech, Inc). For the culturing of an external gene stably over-expressing cell, blasticidin (Kaken Pharmaceutical) was added to the above-described medium to a final concentration of 10 μg/ml.
The plasmid for human CCR5 expression (pEF-BOS-bsr′/hCCR5) was made into linear chain by digesting with AatII. The linear-chained plasmid was purified using QIA Quick PCR Purification Kit (QIAGEN) and then transferred into Ba/F3 cell by electroporation (Gene Pulser (BIO RAD) 960 μF/250 V). The cells were inoculated into a 96 well culture plate at a cell density of 1000, 100 or 10 cells/100 μl/well, and 48 hours thereafter, blasticidin was added thereto to a final concentration of 10 μg/ml to carry out cloning of blasticidin resistant strains, thereby establishing a stable over-expression clone capable of expressing the transferred external gene (hCCR5-Ba/F3 cell).
The test was started by superposing the upper chamber on the lower chamber, and the cells were cultured for 3 hours in a CO2 incubator (5% CO2, humidity 95%) kept at 37° C. Outside bottom moiety of the upper chamber was washed out into the lower chamber using 0.5 ml of a washing buffer (phosphate buffered saline (PBS) containing sodium ethylenediaminetetraacetate (EDTA) (2 mM (and FBS (0.1%)), and the number of cells in the lower chamber was counted using a flow cytometer (Becton Dickinson).
The migration inhibition activity by the compounds of the present invention was calculated as the inhibition ratio (%) in accordance with the following formula, in which the value of well to which the medium containing DMSO but not containing the drug to be tested was added was used as the control value (A), and the value of well to which the DMSO-containing medium containing the drug to be tested was added as the value (B). Inhibition ratio (%)=[(A−B)/A]×100

[2] = MIP-1α 3 nM in lower chamber, read-out: IC50 (nM), migration inhibition, chemokine MIP-1α
[3] = MIP-1β 3 nM in lower chamber, read-out: IC50 (nM), migration inhibition, chemokine MIP-1β
[4] = RANTES 3 nM in lower chamber, read-out: IC50 (nM), migration inhibition, chemokine RANTES

T1 sequence (P51681 whole entry): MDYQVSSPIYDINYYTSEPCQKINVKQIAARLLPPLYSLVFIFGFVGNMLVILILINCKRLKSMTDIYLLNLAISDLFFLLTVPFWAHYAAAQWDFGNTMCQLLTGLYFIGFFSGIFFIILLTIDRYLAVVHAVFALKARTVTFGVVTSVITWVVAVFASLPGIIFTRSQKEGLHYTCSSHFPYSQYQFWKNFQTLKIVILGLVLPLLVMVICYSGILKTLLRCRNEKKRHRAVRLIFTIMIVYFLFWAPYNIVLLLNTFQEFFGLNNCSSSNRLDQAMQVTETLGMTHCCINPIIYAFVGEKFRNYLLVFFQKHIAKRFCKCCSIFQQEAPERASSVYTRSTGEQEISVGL

Row | Compound | inhibition ratio of cell growth ([1]; 0.01 μM) [%] | inhibition ratio of cell growth ([1]; 0.1 μM) [%] | inhibition ratio of cell growth ([1]; 1 μM) [%] | inhibition ratio of cell growth ([1]; 10 μM) [%] | IC50 (human CCR5; [2]) [nM] | IC50 (human CCR5; [3]) [nM] | IC50 (human CCR5; [4]) [nM]
1 | CCCCN1C(=O)[C@@H]([C@H](O)C2CCCCC2)NC(=O)C12CCN(Cc1ccc(Cc3ccc(C(=O)O)cc3OC)cc1)CC2 [Compound (b), 4-[4-({(3R)-1-butyl-3-[(R)-cyclohexyl(hydroxy)methyl]-2,5-dioxo-1,4,9-triazaspiro[5.5]undec-9-yl}methyl)benzyl]-3-methoxybenzoic acid] | −10.6 | 5.6 | 18.3 | 53.6 | 9.8 | 11.1 | 12.4
2 | CCCCN1C(=O)[C@@H]([C@H](O)C2CCCCC2)NC(=O)C12CCN(Cc1ccc(Oc3ccc(C(=O)O)cc3OCC)cc1)CC2.Cl [Compound (c), 4-[4-({(3R)-1-butyl-3-[(R)-cyclohexyl(hydroxy)methyl]-2,5-dioxo-1,4,9-triazaspiro[5.5]undec-9-yl}methyl)phenoxy]-3-ethoxybenzoic acid hydrochloride] | 9.2 | 13.4 | 18.8 | 39.6 | 17.3 | 18.4 | 22.5
